Key:
rdMPXV^Δ96,158 [1] = experiment: microbe, parasite or virus in culture; format: cell-based; conditions: Monkeypox virus, 30 h
rdMPXV^Δ96,158 [2] = format: cell-based
VACV [3] = conditions: cited from earlier work
VACV [4] = conditions: in vivo; cited from earlier work

Structure (SMILES)	EC50 (rdMPXV^Δ96,158 [1]) [µM]	Gaussia luciferase activity (rdMPXV^Δ96,158 [2])	mean fluorescence intensity of mGreen-positive cells (rdMPXV^Δ96,158 [2])	cytopathic effect (CPE) inhibition (VACV [3])	protection from VACV infection (VACV [4])
Nc1ccn(C[C@@H](CO)OCP(=O)(O)O)c(=O)n1 [Cidofovir]	10.5	reduced Gaussia luciferase activity	showed decreased intensity	–	–
Cc1cc(C(=O)NNC(=O)c2ccncc2)ccc1Cl [IMCBH, N1-isonicotinoly-N2-3-methyl-4-chlorobenzoylhydrazine]	–	–	–	complete cytopathic effect (CPE) inhibition	failed to protect
